Laboratory results as given in patent US12448389B2, “BRM targeting compounds and associated methods of use” (Prelude Therapeutics Incorporated, priority 2020, dated 2025).

Legend:
SMARCA2-HiBiT = target: T1, SMARCA2-HiBiT (Homo sapiens, UniProt P51531); test: SMARCA2 HiBiT degradation assay in HeLa cells; type: cell-based; conditions: 18 hours incubation; for DC50: read-out: HeLa_HiBit-SM2 DC50; for Dmax: HeLa, read-out: HeLa-HiBit-SM2 Dmax (%)
T1 construct: SMARCA2-HiBiT knock-in Hela monoclonal cell (CS302366); host or cells: HeLa monoclonal knock-in line (CRISPR HiBiT knock-in at the endogenous locus, heterozygous)
How it was run: (§1)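 HeLa monoclonal lines with heterozygous HiBiT knock-in were seeded at 2500 cells/well in EMEM with 10% FBS and treated with compound for 18 h at 37 °C. Remaining tagged protein was measured by Nano-Glo HiBiT lytic luminescence after 30–60 min at RT, and values came from curve fitting.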

SMARCA4-HiBiT = target: T2, SMARCA4-HiBiT (Homo sapiens, UniProt P51532); test: SMARCA4 HiBiT degradation assay in HeLa cells; type: cell-based; conditions: 18 hours incubation; for DC50: read-out: HeLa-HiBit-SM4 DC50; for Dmax: HeLa, read-out: HeLa-HiBit-SM4 Dmax (%)
T2 construct: SMARCA4-HiBiT knock-in Hela monoclonal cell (CS3023226); host or cells: HeLa monoclonal knock-in line (CRISPR HiBiT knock-in at the endogenous locus, heterozygous)
How it was run: as §1

T1 sequence (P51531 whole entry): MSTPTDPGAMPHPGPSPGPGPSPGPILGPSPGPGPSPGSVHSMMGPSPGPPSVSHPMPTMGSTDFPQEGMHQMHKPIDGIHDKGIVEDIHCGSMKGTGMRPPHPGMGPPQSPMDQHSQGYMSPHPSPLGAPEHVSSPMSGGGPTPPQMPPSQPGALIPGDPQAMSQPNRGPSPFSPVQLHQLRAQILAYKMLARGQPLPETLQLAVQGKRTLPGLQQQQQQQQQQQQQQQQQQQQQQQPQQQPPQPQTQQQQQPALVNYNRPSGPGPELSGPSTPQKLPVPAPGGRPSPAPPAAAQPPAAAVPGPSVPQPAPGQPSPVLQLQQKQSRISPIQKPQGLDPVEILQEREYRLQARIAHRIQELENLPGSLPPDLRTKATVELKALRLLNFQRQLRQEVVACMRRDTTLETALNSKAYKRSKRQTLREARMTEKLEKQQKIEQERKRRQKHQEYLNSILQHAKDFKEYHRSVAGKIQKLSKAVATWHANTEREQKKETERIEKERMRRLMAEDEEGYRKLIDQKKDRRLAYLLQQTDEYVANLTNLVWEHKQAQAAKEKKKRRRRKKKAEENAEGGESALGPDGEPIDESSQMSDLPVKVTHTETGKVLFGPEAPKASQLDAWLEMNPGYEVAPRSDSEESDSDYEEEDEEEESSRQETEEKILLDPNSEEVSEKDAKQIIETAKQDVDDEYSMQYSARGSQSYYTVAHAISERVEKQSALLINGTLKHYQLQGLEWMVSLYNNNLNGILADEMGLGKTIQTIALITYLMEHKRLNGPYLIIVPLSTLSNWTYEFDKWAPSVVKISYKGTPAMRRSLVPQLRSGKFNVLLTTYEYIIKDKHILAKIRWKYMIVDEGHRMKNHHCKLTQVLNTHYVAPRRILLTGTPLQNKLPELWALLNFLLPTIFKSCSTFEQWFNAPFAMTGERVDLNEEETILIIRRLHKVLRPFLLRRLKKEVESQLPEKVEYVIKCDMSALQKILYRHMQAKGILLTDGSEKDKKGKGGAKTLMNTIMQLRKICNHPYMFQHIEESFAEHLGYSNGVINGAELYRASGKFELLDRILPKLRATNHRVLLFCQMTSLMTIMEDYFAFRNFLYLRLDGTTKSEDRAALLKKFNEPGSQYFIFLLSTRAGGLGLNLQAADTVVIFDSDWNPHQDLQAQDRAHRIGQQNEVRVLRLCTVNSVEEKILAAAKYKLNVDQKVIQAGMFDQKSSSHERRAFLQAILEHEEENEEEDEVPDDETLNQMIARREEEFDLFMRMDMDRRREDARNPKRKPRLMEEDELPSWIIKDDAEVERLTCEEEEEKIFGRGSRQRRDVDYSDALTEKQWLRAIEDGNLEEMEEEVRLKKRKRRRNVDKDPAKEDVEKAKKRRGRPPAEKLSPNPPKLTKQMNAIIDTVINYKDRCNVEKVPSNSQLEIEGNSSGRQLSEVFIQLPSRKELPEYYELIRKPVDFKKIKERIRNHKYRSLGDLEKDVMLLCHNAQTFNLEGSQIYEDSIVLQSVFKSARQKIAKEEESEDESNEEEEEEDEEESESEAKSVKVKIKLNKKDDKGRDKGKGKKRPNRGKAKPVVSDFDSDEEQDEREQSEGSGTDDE
T2 sequence (P51532 whole entry): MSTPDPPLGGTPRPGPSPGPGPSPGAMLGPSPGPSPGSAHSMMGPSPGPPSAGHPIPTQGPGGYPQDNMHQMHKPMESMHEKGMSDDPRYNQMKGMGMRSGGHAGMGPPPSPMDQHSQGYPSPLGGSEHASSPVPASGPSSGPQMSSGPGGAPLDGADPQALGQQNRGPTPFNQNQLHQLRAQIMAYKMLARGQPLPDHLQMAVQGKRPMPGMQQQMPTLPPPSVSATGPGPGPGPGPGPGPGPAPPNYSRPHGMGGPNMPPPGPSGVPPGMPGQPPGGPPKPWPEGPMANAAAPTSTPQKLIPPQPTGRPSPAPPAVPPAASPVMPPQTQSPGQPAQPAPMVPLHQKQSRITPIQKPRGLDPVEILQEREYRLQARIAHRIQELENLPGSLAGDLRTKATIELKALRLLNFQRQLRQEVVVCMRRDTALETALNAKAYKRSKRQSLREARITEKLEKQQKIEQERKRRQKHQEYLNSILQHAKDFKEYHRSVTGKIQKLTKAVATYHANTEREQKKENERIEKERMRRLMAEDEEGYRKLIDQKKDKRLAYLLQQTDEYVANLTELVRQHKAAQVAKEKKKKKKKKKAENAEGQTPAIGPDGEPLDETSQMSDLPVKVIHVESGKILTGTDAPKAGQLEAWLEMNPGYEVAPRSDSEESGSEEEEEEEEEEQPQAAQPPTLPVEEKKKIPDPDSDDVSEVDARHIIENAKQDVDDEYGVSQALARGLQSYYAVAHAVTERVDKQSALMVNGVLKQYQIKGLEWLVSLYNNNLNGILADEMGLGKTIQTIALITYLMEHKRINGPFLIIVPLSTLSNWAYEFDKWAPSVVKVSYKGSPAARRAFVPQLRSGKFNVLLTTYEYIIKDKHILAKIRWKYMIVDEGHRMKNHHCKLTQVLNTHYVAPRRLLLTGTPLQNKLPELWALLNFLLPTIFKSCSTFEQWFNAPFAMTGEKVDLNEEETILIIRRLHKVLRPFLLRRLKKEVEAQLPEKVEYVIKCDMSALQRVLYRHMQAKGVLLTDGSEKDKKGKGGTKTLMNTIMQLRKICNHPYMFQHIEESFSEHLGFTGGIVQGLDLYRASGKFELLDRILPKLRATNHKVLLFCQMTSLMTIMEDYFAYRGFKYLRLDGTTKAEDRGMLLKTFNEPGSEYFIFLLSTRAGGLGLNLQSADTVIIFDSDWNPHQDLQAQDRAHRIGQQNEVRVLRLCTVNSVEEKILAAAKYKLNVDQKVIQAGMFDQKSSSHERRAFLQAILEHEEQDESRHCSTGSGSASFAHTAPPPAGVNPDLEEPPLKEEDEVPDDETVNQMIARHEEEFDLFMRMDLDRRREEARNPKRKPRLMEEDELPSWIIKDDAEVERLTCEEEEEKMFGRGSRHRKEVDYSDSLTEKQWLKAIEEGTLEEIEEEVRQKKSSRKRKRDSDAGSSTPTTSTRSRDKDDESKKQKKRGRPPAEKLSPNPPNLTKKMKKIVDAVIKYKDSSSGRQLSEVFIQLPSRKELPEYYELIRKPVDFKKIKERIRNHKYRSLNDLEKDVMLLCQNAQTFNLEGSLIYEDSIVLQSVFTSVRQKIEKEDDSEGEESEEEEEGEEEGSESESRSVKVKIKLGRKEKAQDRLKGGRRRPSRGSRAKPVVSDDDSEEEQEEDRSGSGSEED

Row | DC50 (SMARCA2-HiBiT) [nM] | Dmax (SMARCA2-HiBiT) [%] | DC50 (SMARCA4-HiBiT) [nM] | Dmax (SMARCA4-HiBiT) [%] | Structure (SMILES)
1 | 10 to 100 | 75 to 85 | 100 to 1000 | ≤ 50 | O=C1CCC(N2Cc3cc(OCCN4CCCC(CN5CCN6c7cc(-c8ccccc8O)nnc7NC[C@H]6C5)C4)ccc3C2=O)C(=O)N1 (stereo partly drawn) [Example 255, 3-(5-(2-(3-(((S)-2-(2-hydroxyphenyl)-5,6,6a,7,9,10-hexahydro-8H-pyrazino[1′,2′:4,5]pyrazino[2,3-c]pyridazin-8-yl)methyl)piperidin-1-yl)ethoxy)-1-oxoisoindolin-2-yl)piperidine-2,6-dione]
2 | 10 to 100 | > 85 | 10 to 100 | 75 to 85 | O=C1CCC(N2Cc3ccc(C4CCN(CCCN5CCC(CN6CCN7c8cc(-c9ccccc9O)nnc8NC[C@H]7C6)CC5)CC4)cc3C2=O)C(=O)N1 (stereo partly drawn) [Example 122, 3-(6-(1-(3-(4-(((S)-2-(2-hydroxyphenyl)-5,6,6a,7,9,10-hexahydro-8H-pyrazino[1′,2′:4,5]pyrazino[2,3-c]pyridazin-8-yl)methyl)piperidin-1-yl)propyl)piperidin-4-yl)-1-oxoisoindolin-2-yl)piperidine-2,6-dione]
3 | < 10 | > 85 | < 10 | > 85 | O=C1CCC(N2Cc3cc(C4CCN(C5CCCN(CCN6CCN7c8cc(-c9ccccc9O)nnc8NC[C@H]7C6)C5)CC4)ccc3C2=O)C(=O)N1 (stereo partly drawn) [Example 211, 3-(5-(1′-(2-((S)-2-(2-hydroxyphenyl)-5,6,6a,7,9,10-hexahydro-8H-pyrazino[1′,2′:4,5]pyrazino[2,3-c]pyridazin-8-yl)ethyl)-[1,3′-bipiperidin]-4-yl)-1-oxoisoindolin-2-yl)piperidine-2,6-dione]
4 | < 10 | > 85 | < 10 | > 85 | CC1(C)CN(c2ccc3c(c2)C(=O)N(C2CCC(=O)NC2=O)C3=O)CCC1CN1CCC(CN2CCN3c4cc(-c5ccccc5O)nnc4NC[C@H]3C2)CC1 (stereo partly drawn) [Example 88, 2-(2,6-dioxopiperidin-3-yl)-5-(4-((4-(((S)-2-(2-hydroxyphenyl)-5,6,6a,7,9,10-hexahydro-8H-pyrazino[1′,2′:4,5]pyrazino[2,3-c]pyridazin-8-yl)methyl)piperidin-1-yl)methyl)-3,3-dimethylpiperidin-1-yl)isoindoline-1,3-dione]
5 | < 10 | 50 to 75 | < 10 | 50 to 75 | O=C1CCC(n2c3ccc(CCCN4CCC(N5CCN(C6C[C@@H]7CNc8nnc(-c9ccccc9O)cc8N7C6)CC5)CC4)cc3c3cccnc32)C(=O)N1 (stereo partly drawn) [Example 27, 3-(6-(3-(4-(4-((6aR)-2-(2-hydroxyphenyl)-5,6,6a,7,8,9-hexahydropyrrolo [1′,2′:4,5]pyrazino[2,3-c]pyridazin-8-yl)piperazin-1-yl)piperidin-1-yl)propyl)-9H-pyrido[2,3-b]indol-9-yl)piperidine-2,6-dione]
6 | < 10 | 50 to 75 | 10 to 100 | 75 to 85 | O=C1CCC(N2C(=O)c3ccc(Oc4ccc(N5CCC(N6CCN7c8cc(-c9ccccc9O)nnc8NC[C@H]7C6)CC5)cc4)cc3C2=O)C(=O)N1 (stereo partly drawn) [Example 241, 2-(2,6-dioxopiperidin-3-yl)-5-(4-(4-((S)-2-(2-hydroxyphenyl)-5,6,6a,7,9,10-hexahydro-8H-pyrazino[1′,2′:4,5]pyrazino[2,3-c]pyridazin-8-yl)piperidin-1-yl)phenoxy)isoindoline-1,3-dione]
7 | < 10 | 75 to 85 | 10 to 100 | 75 to 85 | O=C1CCC(N2C(=O)c3cc(F)c(N4CCC(CN5CC6CCC(C5)C6CN5CCN6c7cc(-c8ccccc8O)nnc7NC[C@H]6C5)CC4)cc3C2=O)C(=O)N1 (stereo partly drawn) [Example 169, 2-(2,6-dioxopiperidin-3-yl)-5-fluoro-6-[4-[[8-[[(10S)-4-(2-hydroxyphenyl)-1,5,6,8,12-pentazatricyclo[8.4.0.02,7]tetradeca-2,4,6-trien-12-yl]methyl]-3-azabicyclo[3.2.1]octan-3-yl]methyl]piperidin-1-yl]isoindole-1,3-dione]
8 | < 10 | > 85 | < 10 | > 85 | O=C1CCC(N2C(=O)c3ccc(N4CCC(CN5CCC(O)(CN6CCN7c8cc(-c9ccccc9O)nnc8NC[C@H]7C6)CC5)CC4)cc3C2=O)C(=O)N1 (stereo partly drawn) [Example 38, 2-(2,6-dioxopiperidin-3-yl)-5-(4-((4-hydroxy-4-(((S)-2-(2-hydroxyphenyl)-5,6,6a,7,9,10-hexahydro-8H-pyrazino[1′,2′:4,5]pyrazino[2,3-c]pyridazin-8-yl)methyl)piperidin-l-yl)methyl)piperidin-1-yl)isoindoline-1,3-dione]
9 | < 10 | > 85 | < 10 | 75 to 85 | O=C1CCC(N2Cc3cc(N4CCC(CN5C[C@@H]6[C@H](C5)[C@H]6CN5CCN6c7cc(-c8ccccc8O)nnc7NC[C@H]6C5)CC4)ccc3C2=O)C(=O)N1 (stereo partly drawn) [Example 92, 3-(5-(4-(((1R,5S,6r)-6-(((S)-2-(2-hydroxyphenyl)-5,6,6a,7,9,10-hexahydro-8H-pyrazino[1′,2′:4,5]pyrazino[2,3-c]pyridazin-8-yl)methyl)-3-azabicyclo[3.1.0]hexan-3-yl)methyl)piperidin-1-yl)-1-oxoisoindolin-2-yl)piperidine-2,6-dione]
10 | < 10 | > 85 | < 10 | > 85 | O=C1CCC(N2C(=O)c3ccc(N4CCC(CN5CCO[C@@H](CN6CCN7c8cc(-c9ccccc9O)nnc8NC[C@H]7C6)C5)CC4)cc3C2=O)C(=O)N1 (some centres unmarked) [Example 74]
11 | < 10 | > 85 | < 10 | 50 to 75 | O=C1CCC(N2C(=O)c3ccc(N4CCC(O)(CN5C[C@@H]6[C@@H](CN7CCN8c9cc(-c%10ccccc%10O)nnc9NC[C@H]8C7)[C@@H]6C5)CC4)cc3C2=O)C(=O)N1 (stereo partly drawn) [Example 47, 2-(2,6-dioxopiperidin-3-yl)-5-(4-hydroxy-4-(((1R,5S,6s)-6-(((S)-2-(2-hydroxyphenyl)-5,6,6a,7,9,10-hexahydro-811-pyrazino[1′,2′:4,5]pyrazino[2,3-c]pyridazin-8-yl)methyl)-3-azabicyclo[3.1.0]hexan-3-yl)methyl)piperidin-1-yl) isoindoline-1,3-dione]
12 | < 10 | 50 to 75 | < 10 | 50 to 75 | CN(CCCN1CCN2c3cc(-c4ccccc4O)nnc3NC[C@H]2C1)CC1CCN(c2ccc3c(c2)C(=O)N(C2CCC(=O)NC2=O)C3=O)CC1 (stereo partly drawn) [Example 40, 2-(2,6-dioxopiperidin-3-yl)-5-(4-(((3-((S)-2-(2-hydroxyphenyl)-5,6,6a,7,9,10-hexahydro-8H-pyrazino[1′,2′:4,5]pyrazino[2,3-c]pyridazin-8-yl)propyl)(methyl)amino)methyl)piperidin-1-yl)isoindoline-1,3-dione]
13 | < 10 | > 85 | < 10 | 75 to 85 | O=C1CCC(N2Cc3cc(C4CCN(C5CCCN(CCCN6CCN7c8cc(-c9ccccc9O)nnc8NC[C@H]7C6)C5)CC4)ccc3C2=O)C(=O)N1 (stereo partly drawn) [Example 210, 3-(5-(1′-(3-((S)-2-(2-hydroxyphenyl)-5,6,6a,7,9,10-hexahydro-8H-pyrazino[1′,2′:4,5]pyrazino[2,3-c]pyridazin-8-yl)propyl)-[1,3′-bipiperidin]-4-yl)-1-oxoisoindolin-2-yl)piperidine-2,6-dione]
14 | < 10 | 75 to 85 | < 10 | 75 to 85 | O=C1CCC(N2C(=O)c3ccc(N4CCC5(CN6CCC(CN7CCN8c9cc(-c%10ccccc%10O)nnc9NC[C@H]8C7)CC6)CC5C4)cc3C2=O)C(=O)N1 (stereo partly drawn) [Example 189, 2-(2,6-dioxopiperidin-3-yl)-5-[6-[[4-[[(10S)-4-(2-hydroxyphenyl)-1,5,6,8,12-pentazatricyclo[8.4.0.02,7]tetradeca-2(7),3,5-trien-12-yl]methyl]piperidin-1-yl]methyl]-3-azabicyclo[4.1.0]heptan-3-yl]isoindole-1,3-dione]
15 | < 10 | > 85 | < 10 | > 85 | CC1(CN2CCN3c4cc(-c5ccccc5O)nnc4NC[C@H]3C2)CCN(CC2CCN(c3ccc4c(c3)CN(C3CCC(=O)NC3=O)C4=O)CC2)CC1 (stereo partly drawn) [Example 250, 3-(5-(4-((4-(((S)-2-(2-hydroxyphenyl)-5,6,6a,7,9,10-hexahydro-8H-pyrazino[1′,2′:4,5]pyrazino[2,3-c]pyridazin-8-yl)methyl)-4-methylpiperidin-1-yl)methyl)piperidin-1-yl)-1-oxoisoindolin-2-yl)piperidine-2,6-dione]
16 | < 10 | > 85 | < 10 | 75 to 85 | O=C1CCC(N2C(=O)c3ccc(N4CCC(CN5CC(CN6CCN7c8cc(-c9ccccc9O)nnc8NC[C@H]7C6)C5)CC4)cc3C2=O)C(=O)N1 (stereo partly drawn) [Example 36, 2-(2,6-dioxopiperidin-3-yl)-5-(4-((3-(((S)-2-(2-hydroxyphenyl)-5,6,6a,7,9,10-hexahydro-8H-pyrazino[1′,2′:4,5]pyrazino[2,3-c]pyridazin-8-yl)methyl)azetidin-1-yl)methyl)piperidin-1-yl)isoindoline-1,3-dione]
17 | < 10 | 75 to 85 | < 10 | 50 to 75 | CN(CCN1CCC(CN2CCN3c4cc(-c5ccccc5O)nnc4NC[C@H]3C2)CC1)c1ccc2c(c1)C(=O)N(C1CCC(=O)NC1=O)C2=O (stereo partly drawn) [Example 246, 2-(2,6-dioxopiperidin-3-yl)-5-((2-(4-(((S)-2-(2-hydroxyphenyl)-5,6,6a,7,9,10-hexahydro-8H-pyrazino[1′,2′:4,5]pyrazino[2,3-c]pyridazin-8-yl)methyl)piperidin-1-yl)ethyl)(methyl)amino)isoindoline-1,3-dione]
